Results on 17 molecules are retold here after paper PMC10827914 (Cellular and Molecular Life Sciences: CMLS, 2024).

Where a SMILES comes first, the peptide text is derived from it. Bridges are numbered along the chain shown (N, C = ends). Where no end group is shown, it is not given here.

The target of assay [1] is T1, recombinant human CD13 (rCD13) (Homo sapiens, UniProt P15144).
T1 construct: consisting of the CD13 extracellular domain expressed in HEK-293 cells; His-tag; purchased Sino Biological 10051-H08H; host or cells: HEK-293 cells
Put plainly: rCD13 enzyme inhibition assay, L-alanine-p-nitroanilide substrate. The assay is classed as biochemical. To be noted: for IC50: rCD13 0.2 μg/mL, L-alanine-p-nitroanilide 0.5 mM, 60 mM potassium phosphate buffer pH 7.4, 30 min, 37 °C, absorbance, mean ± SEM of n independent experiments, read-out: IC50: peptide concentration that inhibits 50% of rCD13 enzymatic activity. As for the experimental part:
(§1) Recombinant CD13 (rCD13) enzyme activity and inhibition assays were performed as described previously using L-alanine-p-nitroanilide or L-alanine 7-amido-4-methylcoumarin as substrates in 60 mM Tris–HCl, pH 7.4, or 60 mM potassium phosphate buffer, pH 7.4. Mixtures containing peptides at various concentrations, rCD13 (0.2 µg/mL), and L-alanine-p-nitroanilide substrate (0.5 mM) in 60 mM potassium phosphate buffer, pH 7.4 (total volume, 0.1 ml) were prepared and left to react for 30 min at 37 °C. The products were then analyzed using a plate reader (iMark Microplate Absorbance Reader; Bio-Rad). Alternatively, the assay was performed using 0.1 mM L-alanine 7-amido-4-methylcoumarin in 60 mM Tris–HCl, pH 7.4, as a substrate. Fluorescence intensity of methylcoumarin was measured on an Infinite 200 PRO plate reader (Tecan) using the following settings: excitation wavelength: 341 nm; emission wavelength: 441 nm; excitation bandwidth: 9; emission bandwidth: 20 nm; gain: 109 manual; number of flashes: 25; integration time: 20 µs; lag time: 0 µs; settle time: 0 ms.
(§2) The IC50 of each inhibitor was calculated by non-linear regression analysis of inhibition data using GraphPad Prism Software (GraphPad Software, Version 9.00, San Diego, CA). Steady-state enzyme kinetic analyses were performed using various concentrations of L-alanine-p-nitroanilide (0–1.5 mM) and VGCARRYCS peptide (0–900 nM). The initial velocities (Vo) were calculated from the slopes of the first 5 min of reaction. The enzyme inhibitory constant (Ki) was calculated using the competitive enzyme inhibition model in GraphPad Prism Software.
A) VGCGRRYCSN and CSGIGSSGGC (control) peptides, at various concentrations, were mixed with rCD13 (0.2 µg/mL), L-alanine-p-nitroanilide substrate (0.5 mM), in 60 mM potassium phosphate buffer, pH 7.4. The mixtures were left to react for 30 min at 37° C; then the absorbance at 405 nm of each mixture was measured using an ELISA plate reader (Bio-Rad). The IC50 of each inhibitor was calculated by non-linear regression analysis of inhibition data using the GraphPad Prism Software (GraphPad Software, Version 9.00, San Diego, CA). The result of one experiment performed in duplicate is shown (mean ± SEM).

The target in assay [2] is T1, recombinant human CD13 (rCD13). Put plainly: rCD13 enzyme inhibition assay, L-alanine 7-amido-4-methylcoumarin substrate. It counts as biochemical. To be noted: 0.1 mM L-alanine 7-amido-4-methylcoumarin, 60 mM Tris-HCl pH 7.4, fluorescence; mean ± SEM of n independent experiments; read-out: IC50: peptide concentration that inhibits 50% of rCD13 enzymatic activity. As for the experimental part: as §1, §2
Fig. 2 G4 recognizes soluble forms of CD13, with higher affinity and selectivity than bestatin, and the membrane forms expressed on the surface of HUVEC cells. A Inhibitory effects of G4 and bestatin on the enzymatic activities of different aminopeptidases (rCD13, APA, and APB). Various amounts of G4 or bestatin were incubated with rCD13 (0.2 µg/mL in 60 mM Tris–HCl pH 7.4), APA (0.2 µg/mL in 60 mM Tris–HCl pH 7.4, 50 mM calcium chloride, 200 mM sodium chloride) or APB (0.2 µg/mL in 60 mM Tris–HCl pH 7.4, 100 mM potassium chloride) and the corresponding substrates at 0.1 mM (L-alanine-7-amido-4-methylcoumarin for rCD13, L-glutamic acid γ-(7-amido-4-methylcoumarin) for APA, and L-arginine-7-amido-4-methylcoumarin for APB). The mixtures were incubated for 30 min at 37 °C, and the cleavage of each substrate was monitored by measuring the fluorescence of methylcoumarin (λex 341 nm; λem 441 nm) using an Infinite 200 PRO plate reader (Tecan). Three independent experiments were performed for each enzyme. The results of one representative experiment for each enzyme are shown (mean ± SEM, duplicates). B Inhibitory effects of G4 and bestatin on soluble CD13 immunocaptured from human serum (sCD13) using microtiter plates coated with anti-CD13 mAb WM15. The microtiter plate was filled with a solution of mAb WM15 (5 μg/ml in DPBS) and incubated overnight at 4 °C. The plate was then washed with DPBS, blocked with 3% bovine serum albumin (BSA) in DPBS, and filled with human serum containing soluble CD13 (diluted 1:2 with DPBS containing 2% BSA). After washing with DPBS, mixtures of G4 or bestatin (0–100 µM in 60 mM Tris–HCl, pH 7.4) and L-alanine p-nitroanilide hydrochloride substrate (4.5 mM in 60 mM Tris–HCl, pH 7.4) were added and left to incubate at 37 °C for 2 h. Substrate cleavage by sCD13 dissociated from mAb WM15 was then monitored by measuring the absorbance at 405 nm in each well using a plate reader (Bio-Rad). The results of one experiment performed in triplicate are shown (mean ± SEM). C Effect of G4 on the binding of the anti-CD13 mAb WM15 to HUVEC. HUVEC were seeded at a density of 2 × 10^5 cells in 100 µL DPBS supplemented with 5% normal human serum (NHS) and incubated with a mixture of G4 peptide (0, 0.1, 1, and 10 µM) and mAb WM15 (0 or 0.13 nM) as indicated. […]

Assay [3] addresses His-tagged recombinant human CD13 (rCD13) (human) (UniProt P15144).

T1 sequence (P15144 33-967 limits assumed): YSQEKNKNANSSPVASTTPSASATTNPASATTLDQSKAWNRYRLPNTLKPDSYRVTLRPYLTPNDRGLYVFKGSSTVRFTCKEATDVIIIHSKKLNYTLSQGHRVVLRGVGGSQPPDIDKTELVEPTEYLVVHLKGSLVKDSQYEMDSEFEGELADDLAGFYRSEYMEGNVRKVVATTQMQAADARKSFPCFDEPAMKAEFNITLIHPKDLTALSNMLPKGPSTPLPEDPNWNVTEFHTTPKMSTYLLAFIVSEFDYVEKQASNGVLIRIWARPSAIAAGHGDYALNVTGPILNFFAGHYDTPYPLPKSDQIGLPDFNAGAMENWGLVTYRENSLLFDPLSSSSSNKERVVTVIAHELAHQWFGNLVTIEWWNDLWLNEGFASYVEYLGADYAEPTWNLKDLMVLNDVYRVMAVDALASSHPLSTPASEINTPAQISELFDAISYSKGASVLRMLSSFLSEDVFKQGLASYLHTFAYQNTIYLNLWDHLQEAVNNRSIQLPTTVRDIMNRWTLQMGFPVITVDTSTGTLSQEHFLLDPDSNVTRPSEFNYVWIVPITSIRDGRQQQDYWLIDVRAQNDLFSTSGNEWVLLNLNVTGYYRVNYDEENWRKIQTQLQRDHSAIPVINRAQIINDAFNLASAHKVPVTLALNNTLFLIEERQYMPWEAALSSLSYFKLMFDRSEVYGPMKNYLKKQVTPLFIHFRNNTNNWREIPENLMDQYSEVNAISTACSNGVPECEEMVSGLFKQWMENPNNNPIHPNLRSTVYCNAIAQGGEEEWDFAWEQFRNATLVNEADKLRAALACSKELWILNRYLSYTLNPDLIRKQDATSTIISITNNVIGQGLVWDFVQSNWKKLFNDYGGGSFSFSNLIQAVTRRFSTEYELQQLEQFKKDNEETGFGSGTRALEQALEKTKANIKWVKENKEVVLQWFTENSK
His-tagged recombinant human CD13 (rCD13) (human), sequence (P15144 33-967): as the sequence (P15144 33-967 limits assumed) above

Consider VGAGRRYASN [VGAGRRYASN], for which the IC50 in assay [1] came to 6.2 ± 4.8 µM.
On to `CC(C)[C@H](N)C(=O)NCC(=O)N[C@H]1CSSC[C@@H](C(=O)N[C@@H](CO)C(=O)N[C@@H](CC(N)=O)C(=O)O)NC(=O)[C@H](Cc2ccc(O)cc2)NC(=O)[C@H](CCCNC(=N)N)NC(=O)[C@H](CCCNC(=N)N)NC(=O)[C@H](C)NC1=O` [VGCARRYCSN] (H-VGCARRYCSN-OH; disulfide 3-8), for which the IC50 in assay [1] is 0.2 ± 0.06 µM; in assay [2], 0.19 ± 0.01 µM.
On to `CC(C)[C@H](N)C(=O)NCC(=O)N[C@H]1CSSC[C@@H](C(=O)N[C@@H](CO)C(=O)N[C@@H](CC(N)=O)C(=O)O)NC(=O)[C@H](Cc2ccc(O)cc2)NC(=O)[C@H](C)NC(=O)[C@H](CCCNC(=N)N)NC(=O)CNC1=O` [VGCGRAYCSN] (H-VGCGRAYCSN-OH; disulfide 3-8), for which, in assay [1], the IC50 amounted to 17.6 ± 4.6 µM.
Regarding `CC(=O)N[C@H](C(=O)NCC(=O)N[C@H]1CSSC[C@@H](C(=O)N[C@@H](CO)C(=O)N[C@@H](CC(N)=O)C(=O)O)NC(=O)[C@H](Cc2ccc(O)cc2)NC(=O)[C@H](CCCNC(=N)N)NC(=O)[C@H](CCCNC(=N)N)NC(=O)[C@H](C)NC1=O)C(C)C` [ac-VGCARRYCSN] (Ac-VGCARRYCSN-OH; disulfide 3-8; C-terminus assumed), in assay [2], the IC50 is above 1000 µM.
`C[C@@H]1NC(=O)[C@@H](NC(=O)CN)CSSC[C@@H](C(=O)N[C@@H](CO)C(=O)O)NC(=O)[C@H](Cc2ccc(O)cc2)NC(=O)[C@H](CCCNC(=N)N)NC(=O)[C@H](CCCNC(=N)N)NC1=O` [GCARRYCS] (H-GCARRYCS-OH; disulfide 2-7): the IC50 in assay [2] was determined as 69.5 ± 0.1 µM.
Turning to `CC(C)[C@H](N)C(=O)NCC(=O)N[C@H]1CSSC[C@@H](C(=O)O)NC(=O)[C@H](Cc2ccc(O)cc2)NC(=O)[C@H](CCCNC(=N)N)NC(=O)[C@H](CCCNC(=N)N)NC(=O)[C@H](C)NC1=O` [VGCARRYC] (H-VGCARRYC-OH; disulfide 3-8), the IC50 in assay [2] was 0.23 ± 0.01 µM.
As for `CC(C)[C@H](N)C(=O)NCC(=O)N[C@H]1CSSC[C@@H](C(=O)N[C@@H](CO)C(=O)N[C@@H](CC(N)=O)C(=O)O)NC(=O)[C@H](C)NC(=O)[C@H](CCCNC(=N)N)NC(=O)[C@H](CCCNC(=N)N)NC(=O)CNC1=O` [VGCGRRACSN] (H-VGCGRRACSN-OH; disulfide 3-8), the IC50 in assay [1] was determined as 8.9 ± 5.5 µM.
In the case of `CC(C)[C@H](N)C(=O)NCC(=O)N[C@H]1CSSC[C@@H](C(=O)N[C@@H](CO)C(=O)N[C@@H](CC(N)=O)C(=O)O)NC(=O)[C@H](Cc2ccc(O)cc2)NC(=O)[C@H](CCCNC(=N)N)NC(=O)[C@H](CCCNC(=N)N)NC(=O)CNC1=O` [VGCGRRYCSN] (H-VGCGRRYCSN-OH; disulfide 3-8), the IC50 in assay [1] is 2.01 ± 1.1 µM.
As to “CSGIGSGGC [negative control peptide, reference compound]”, the “Inhibition of rCD13 enzymatic activity (in words)” value in assay [1] (negative control peptide, rCD13 0.2 µg/ml, L-alanine-p-nitroanilide, Supplementary Fig. S2A) was “no inhibition”.
For `CC(C)[C@H](N)C(=O)NCC(=O)N[C@H]1CSSC[C@@H](C(=O)N[C@@H](CO)C(=O)N[C@@H](CC(N)=O)C(=O)O)NC(=O)[C@H](Cc2ccc(O)cc2)NC(=O)[C@H](CCCNC(=N)N)NC(=O)[C@H](C)NC(=O)CNC1=O` [VGCGARYCSN] (H-VGCGARYCSN-OH; disulfide 3-8), the IC50 in assay [1] is 12.1 ± 8.4 µM.
On to `C[C@@H]1NC(=O)[C@@H](NC(=O)CN)CSSC[C@@H](C(=O)N[C@@H](CO)C(=O)N[C@@H](CC(N)=O)C(=O)O)NC(=O)[C@H](Cc2ccc(O)cc2)NC(=O)[C@H](CCCNC(=N)N)NC(=O)[C@H](CCCNC(=N)N)NC1=O` [GCARRYCSN] (H-GCARRYCSN-OH; disulfide 2-7), for which the IC50 in assay [2] was 40.1 ± 1.9 µM.
Regarding `CC(C)[C@H](N)C(=O)N[C@@H](C)C(=O)N[C@H]1CSSC[C@@H](C(=O)N[C@@H](CO)C(=O)N[C@@H](CC(N)=O)C(=O)O)NC(=O)[C@H](Cc2ccc(O)cc2)NC(=O)[C@H](CCCNC(=N)N)NC(=O)[C@H](CCCNC(=N)N)NC(=O)CNC1=O` [VACGRRYCSN] (H-VACGRRYCSN-OH; disulfide 3-8), in assay [1], the IC50 worked out at 4.5 ± 5.1 µM.
`C[C@H](N)C(=O)NCC(=O)N[C@H]1CSSC[C@@H](C(=O)N[C@@H](CO)C(=O)N[C@@H](CC(N)=O)C(=O)O)NC(=O)[C@H](Cc2ccc(O)cc2)NC(=O)[C@H](CCCNC(=N)N)NC(=O)[C@H](CCCNC(=N)N)NC(=O)CNC1=O` [AGCGRRYCSN] (H-AGCGRRYCSN-OH; disulfide 3-8): in assay [1], the IC50 stood at 11.4 ± 4.5 µM.

B1: … with deletion of Val-1 (peptide)
peptide: GCARRYCSN
As to B1, in assay [3], the inhibition of rCD13 enzymatic activity, against … (fold loss of activity) turned out to be 200.

B2: … with deletion of Ser-9 and Asn-10 (peptide)
peptide: VGCARRYC
On to B2, for which the inhibition of rCD13 enzymatic activity, against … (fold decrease) in assay [3] stood at 3.

B3: small disulfide-bridged peptide CARRYC (peptide)
peptide: CARRYC
modifications: disulfide 1-6 (inferred)
In the case of B3, the IC50 of inhibition of rCD13 enzymatic activity in assay [3] turned out to be 51 µM.

B4: … with deletion of Val-1 and Gly-2 (peptide)
peptide: CARRYCSN
As to B4, in assay [3], the inhibition of rCD13 enzymatic activity, against … (fold loss of activity) was determined as 270.
